Laboratory results as given in patent US10538515B2, “Isatin-derived compounds, use of the compounds for the treatment of AIDS and method of treatment using these compounds” (FUNDAÇÄO OSWALDO CRUZ, priority 2016, dated 2020).
Read-outs that look alike come from different tables or passages of the source.

Columns and labels:
[1] = test system: Suptl cells (T-lymphocyte cell line); test: Cytotoxicity assay (MTT); format: cell-based
Experimental: The T-lymphocyte cell line (Suptl) was cultured in an RPMI 1640 medium (GIBICO). The cultures were supplemented with 10% Fetal Bovine Serum (SFB; HyClone, Logan, Utah, USA), 100 U/mL of penicillin and […] of streptomycin, and incubated at 37° C., in an atmosphere of 5% CO2. Virus stocks were prepared using the methodology described by Souza and Denizot (SOUZA, T. M. L; RODRIGUES, D. Q.; […], V. F.; MARQUES, I. P.; DE SOUZA, M. C. B. V.; […], I. C. P. P.; BOU-HABIB, D. C; FONTES, C. F. L. Characterization of HIV-1 enzyme reverse transcriptase inhibition by the compound 6-chloro-1.4-dihydro-4-oxo-1-(β-D-ribofuranosyl) quinoline-3-carboxylic acid through kinetic and in silico studies. Current HIV Research, v. 7, No 3, page 327-335, 2009. DENIZOT, F.; LANG, R. Rapid colorimetric assay for cell growth and survival. Modifications to the tetrazolium dye procedure giving improved sensitivity and reliability. The Journal of Immunological Methods, v. 89, No 2, page 271-277, 1986).
. They were then run through an MTT assay (3-(4,5-dimethylazol-2-yl)-2.5-diphenyl tetrazolium bromide) in order to analyze cell induction infeasibility. MTT is a colorimetric method that measures mitochondrial dehydrogenase activity based on the ability of live cells to reduce 3-(4,5-methylazol-2-yl)-2.5-diphenyl tetrazolium bromide salt in the product. A […] solution of 3-(4,5-dimethylthiazol-2-yl)-2.5-diphenyl tetrazolium bromide (1 mg/ml) (MTT, Sigma) was thus added to the cells, kept in Dulbecco's Modified Eagle's medium (DMEM) without serum. The MTT was removed after three hours and, after adding […] of isopropanol acid (0.04N HCl in isopropanol), the optical density (OD) was determined using a wavelength range of 570 to 690 nm, according to KUO et al (KUO, Y. C; CHEN, C. C; TSA, W. J.; HO, Y. H. Regulation of type 1 herpes simplex virus replication in vero cells by Psychotriaserpens: relationship to gene expression, DNA replication, and protein synthesis. Antiviral Research, v. 51, No 2, pages 95 to 109, 2001). The dye coloring has different optical densities, depending on mitochondrial metabolism after treating cells with different concentrations of the new derivatives or the absence thereof. The 50% cytotoxic concentration (CC50) was calculated through linear regression analysis from the dose-response curve obtained from experimental data.

[2] = molecular target: T1, recombinant HIV-1 reverse transcriptase (RTHXB2) (Human immunodeficiency virus type 1 group M subtype B, UniProt P04585); test: Reverse transcriptase inhibition activity (RDDP, [3H]dTTP incorporation); format: biochemical; conditions: for IC50: 50% inhibitory concentration, mean of three independent experiments, read-out: CI50 (the source's name)
T1 construct: The enzyme is derived from a polyprotein encoded by the virus, processed by the viral protease
Experimental: Reverse Transcriptase Inhibition Activity
The RDDP activity was determined in 50 mM Tris HCl (pH 7.8), 6 mM MgCl2, 1 mM dithiothreitol, 50 mM KCl, 5 μM dTTP, […] poly (rA) oligo (dT) template primer (Pharmacia, Piscataway, N.J., USA) and 3 U of enzyme (one unit is the enzyme concentration incorporating dTTP […] per minute per mg of enzyme at 37° C. under standard conditions). The reaction isotope dilutions were prepared at 2 μCi of [3H] dTTP (49 Ci/mmol)/2,7μ dTTP. The reaction was initiated at 37° C., incubated for 30 minutes and halted with 0.5M EDTA. The precipitate was collected on Whatman 81 filter paper and washed with 0.1 M sodium phosphate. The incorporated nucleotides were measured by liquid scintillation. The 50% inhibitory concentration (Ciso) was determined by linear regression analysis of the dose-response curve obtained from experimental data. The polymerization reaction was conducted in the presence and absence of test substances, as well as the presence and absence of standards.
All tests were conducted on three separate occasions. At least three independent experiments were performed and triplicates were run for each concentration.

Row | Structure (SMILES) | CC50 ([1]; 50% cytotoxic concentration, 72 hours, MTT, read-out: CC50) [nM] | IC50 [2] [nM] | CC50 [1] [nM] | IS ([2]; CC50 / CI50)
1 | CCOP(=O)(Cn1cc(CN2C(=O)C(F)(F)c3cc(C)ccc32)nn1)OCC [IIIe, diethyl ((4-((3,3-difluor-5-methyl-2-oxoindolin-1-yl)methyl)-1H-1,2,3-triazole-1-yl)methyl) phosphonate] | > 100000 | 2200 | – | –
2 | C[C@H](Cn1cnc2c(N)ncnc21)OCP(=O)(O)O [Tenofovir, reference compound] | – | 1200 | 680000 | 567
